The test system of one assay is human placenta. Conditions: cited from earlier work.
The subject of a further assay is term placental explants. In words: Term placental explants treated with LPS and Cytochalasin-D, TNF-α ELISA. It counts as cell-based, human. As to conditions: 2 LPS doses and Cytochalasin-D (9.8 uM). From the text: Human first and second trimester placentas from elective termination of normal pregnancies (8 to 23 weeks gestation) were collected. The second trimester placenta samples were obtained after elective terminations induced by mechanical evacuation only. Human first and second trimester and term placentas were also collected from vaginal delivery or C-section. A placental explant system was used to preserve the normal cellular architecture. Placental samples from term and third trimester were collected from the maternal side as previously described (Kim et al., 2018, Am J Reprod Immunol, December 26: e13080). Placental explants were processed immediately after collection and prepared as previously described (Peltier et al., 2013, Am J Reprod Immunol, 69: 142e149). […]
Supernatant cytokine concentrations were analyzed using Ready-Set-Go™ ELISA kits (eBioscience; San Diego, Calif.). The measured cytokines included TNF-a, IL-1b and IL-10 and the concentrations were expressed in pg/ml.
For this reason, the kit was utilized for all of the following experiments to isolate EVs. […] Media were collected and analyzed. […] THP-1 cell culture media was collected after 24 h, and TNF-α levels were analyzed by ELISA (FIG. 2E). […]
Background: In an ELISA, binding on a coated surface is turned into a signal by an enzyme label.

Structures are written as SMILES. Read-outs that look alike come from different tables or passages of the source.

For `CC(=O)CCCCn1c(=O)c2c(ncn2C)n(C)c1=O` [Pentoxixyline, pentoxifylline], the “effect on LPS induced inflammation and TNF-α production” value in the assay on human placenta (Speer et al., 2017, listed as pentoxifylline) was “inhibits LPS induced TNF-α”; with human placenta (Speer et al., 2017), “inhibited LPS induced inflammation and TNF-α production”.

Consider `C=C1[C@@H](C)[C@H]2[C@H](Cc3ccccc3)NC(=O)[C@]23[C@H](OC(C)=O)/C=C/[C@@](C)(O)C(=O)[C@@H](C)C/C=C/[C@H]3[C@@H]1O` [Cytoclasin-D, Cytochalasin-D], for which the TNF-α production with term placental explants came to 18979 ± 7626 pg/mL.

(Values after patent publication US20210355539A1, “BIOMARKERS FROM MINIMALLY INVASIVE SAMPLING REFLECTIVE OF THE PLACENTAL IMMUNE MICROENVIRONMENT” (NEW YORK UNIVERSITY, priority 2020, published 2021).)
